Assay results: patent publication US20250296938A1, “Compounds that Interact with the Ras Superfamily for the Treatment of Cancers, Inflammatory Diseases, Rasopathies, and Fibrotic Disease” (SHY Therapeutics, LLC, priority 2018, published 2025)
pIC50: −log10 of the molar value. Like-named read-outs stand apart in the source and are kept apart here.

Test system: MIA PaCa-2 pancreatic cancer cell line
Assay: Cell proliferation assay (DAPI)
Assay type: cell-based
Settings: Homo sapiens; for inhibition at 10 µM: read-out: % Inhibition of cell proliferation, MIA PaCa-2 % inh
Protocol: Cell lines: Human NSCLC cells NCI-H1975 and NCI-H1299, and tumor-derived pancreatic cancer cell lines Panc-1, MIA-PACA2, and BxPC3, were all purchased from American Type Culture Collection and grown in complete RPMI medium (BxPC3, NCI-H1975 and NCI-H1299) or DMEM-High Glucose (Panc1 and MIA-PaCa-2), supplemented with penicillin (100 U/mL), streptomycin (100 μg/mL), and 10% heat-inactivated FBS at 37° C. in a humidified incubator with 5% CO2.
Method: Cells were plated at 2000 to 5000 cells/well density in 96-wells plate and cultured ON. Small molecules to be tested were added to the cells in the final concentration of 10 µM in the presence of 0.3% DMSO and 10% FBS, and incubated for 2-4 days at 37° C. in a humidified incubator with 5% CO2. For IC50 value determination, serial dilutions of compounds were added to cells under the same conditions.
Assay: At the end of the incubation period, cell cultures were fixed with a 50-50 mixture (v/v) acetone-methanol for 10 minutes at −20° C., followed by rehydration in PBS for 10 minutes at room temperature. DNA total content was determined by staining cells with DAPI (1 ug/ml) in PBS for 10 minutes at room temperature, followed by 3 washes with PBS. After staining, DAPI fluorescence was recorded (358 nm excitation/461 nm emission) with the 96-well plate reader Molecular Devices Spectramax M3; degree of small molecule-dependent proliferation inhibition was calculated from raw data.

SMILES	inhibition at 10 µM (2-4 days, MIA PaCa-2)	inhibition at 10 µM (MIA PaCa-2 (Table 5A))	pIC50 (MIA PaCa-2 (Table 5A))
COCCc1ccc(Oc2nc(-c3ccccn3)nc(O)c2OC)cc1 [drawing 592]	76 to 100%		
COc1c(O)nc(-c2ccccn2)nc1Oc1ccccc1 [drawing 593]	76 to 100%		
O=C(c1nc(-c2ccccn2)nc(O)c1O)N1CCc2ccccc2C1 [drawing 594]	1 to 25%		
O=C(c1nc(-c2ccccn2)nc(O)c1O)N1CCOCC1 [drawing 595]	0%		
O=C(NCc1ccccc1)c1nc(-c2ccccn2)nc(O)c1O [drawing 597]	26 to 50%		
O=C(c1nc(-c2ccccn2)nc(O)c1O)N1CCCC1 [drawing 598]	1 to 25%		
O=C(NC1CCCC1)c1nc(-c2ccccn2)nc(O)c1O [drawing 599]	26 to 50%		
CC(C)CN(C)C(=O)c1nc(-c2ccccn2)nc(O)c1O [drawing 600]	0%		
CC(C)CNC(=O)c1nc(-c2ccccn2)nc(O)c1O [drawing 601]	0%		
COCCN(C)C(=O)c1nc(-c2ccccn2)nc(O)c1O [drawing 602]	0%		
O=C(NC1CCC1)c1nc(-c2ccccn2)nc(O)c1O [drawing 603]	0%		
CC(C)NC(=O)c1nc(-c2nccn2C)nc(O)c1O [drawing 604]	26 to 50%		
CCN(CC)C(=O)c1nc(-c2nccn2C)nc(O)c1O [drawing 605]	1 to 25%		
Cn1ccnc1-c1nc(O)c(O)c(C(=O)N2CCCC2)n1 [drawing 606]	0%		
Cn1ccnc1-c1nc(O)c(O)c(C(=O)NC2CCCC2)n1 [drawing 607]	0%		
Cn1ccnc1-c1nc(O)c(O)c(C(=O)N2CCCCC2)n1 [drawing 608]	1 to 25%		
Cn1ccnc1-c1nc(O)c(O)c(C(=O)NC2CCC2)n1 [drawing 609]	1%		
COC(=O)c1nc(-c2nccn2C)nc(O)c1O [drawing 610]	0%		
COc1nc(-c2ccccn2)nc(Nc2cnn(C)c2)c1OC [drawing 611]	1 to 25%		
COCCn1cc(Nc2nc(-c3ccccn3)nc(OC)c2OC)cn1 [drawing 612]	26 to 50%		
COC1CCN(c2nc(-c3nccn3C)nn3cc(-c4ccccc4)c(-c4ccccc4)c23)C1 (stereo not drawn) [drawing 613]	76 to 100%		

SMILES	inhibition at 10 µM (2-4 days, MIA PaCa-2)	inhibition at 10 µM (MIA PaCa-2 (Table 5A))	pIC50 (MIA PaCa-2 (Table 5A))
COc1c(O)nc(-c2ccccn2)nc1Oc1ccc(C(=O)N(C)C)cc1 [drawing 614]		1 to 25%	
COc1c(O)nc(-c2ccccn2)nc1Nc1ccccc1 [drawing 615]		76 to 100%	< 6.00
CCn1cc(Nc2nc(-c3ccccn3)nc(O)c2OC)cn1 [drawing 616]		0%	< 6.00
CCOc1cccc(Nc2nc(-c3ccccn3)nc(O)c2OC)c1 [drawing 617]		76 to 100%	< 6.00
COc1cccc(-c2sc3nc(-c4nccn4C)nc(NC4CCC(OC)C4)c3c2-c2ccccc2)c1F (stereo not drawn) [drawing 618]		76 to 100%	6.00 to 6.12
COc1cccc(-c2sc3nc(-c4nccn4C)nc(N[C@@H]4CC[C@H](OC)C4)c3c2-c2ccccc2)c1F [drawing 619]		76 to 100%	6.00 to 6.12
COC1CCC(Nc2nc(-c3nccn3C)nc3sc(-c4cccc(O)c4F)c(-c4ccccc4)c23)C1 (stereo not drawn) [drawing 620]		76 to 100%	< 6.00
COc1c(F)cccc1-c1sc2nc(-c3nccn3C)nc(NC3CCC(OC)C3)c2c1-c1ccccc1 (stereo not drawn) [drawing 621]		76 to 100%	6.00 to 6.12
COc1c(F)cccc1-c1sc2nc(-c3nccn3C)nc(N[C@@H]3CC[C@H](OC)C3)c2c1-c1ccccc1 [drawing 622]		76 to 100%	6.00 to 6.12
COC1CCC(Nc2nc(-c3nccn3C)nc3sc(-c4cccc5[nH]ncc45)c(-c4ccccc4)c23)C1 (stereo not drawn) [drawing 623]		76 to 100%	6.00 to 6.12
CO[C@H]1CC[C@@H](Nc2nc(-c3nccn3C)nc3sc(-c4cccc5[nH]ncc45)c(-c4ccccc4)c23)C1 [drawing 624]		76 to 100%	6.00 to 6.12
COC1CCN(c2nc(-c3nccn3C)nc3sc(-c4cccc(O)c4F)c(-c4ccccc4)c23)C1 (stereo not drawn) [drawing 625]		76 to 100%	< 6.00
COc1cccc(-c2sc3nc(-c4nccn4C)nc(N[C@H]4C[C@@H](OC)C4)c3c2-c2ccccc2)c1F [drawing 626]		76 to 100%	6.13 to 6.30
CO[C@H]1C[C@@H](Nc2nc(-c3nccn3C)nc3sc(-c4cnn(C)c4)c(-c4ccccc4)c23)C1 [drawing 627]		76 to 100%	6.00 to 6.12
COc1cccc(-c2sc3nc(-c4nccn4C)nc(NC4CCC(OC)C4)c3c2C)c1F (stereo not drawn) [drawing 628]		76 to 100%	6.00 to 6.12
COc1cccc(-c2sc3nc(-c4nccn4C)nc(N[C@@H]4CC[C@H](OC)C4)c3c2C)c1F [drawing 629]		76 to 100%	6.00 to 6.12
COC1CCC(Nc2nc(-c3nccn3C)nc3sc(-c4cccc5[nH]ncc45)c(C)c23)C1 (stereo not drawn) [drawing 630]		76 to 100%	< 6.00
COc1cccc(-c2sc3nc(-c4nc(C)cn4C)nc(N[C@@H]4CC[C@H](OC)C4)c3c2C)c1F [drawing 631]		76 to 100%	6.00 to 6.12
CO[C@H]1CC[C@@H](Nc2nc(-c3nc(C)cn3C)nc3sc(-c4cccc5[nH]ncc45)c(C)c23)C1 [drawing 632]		76 to 100%	< 6.00
COCCn1ccnc1-c1nc(O)c2scc(-c3ccc(OCC(C)C)nc3)c2n1 [drawing 633]		76 to 100%	> 6.30
CC(C)COc1ccc(-c2csc3c(O)nc(-c4nccn4Cc4ccccn4)nc23)cn1 [drawing 634]		76 to 100%	6.13 to 6.30

SMILES	inhibition at 10 µM (2-4 days, MIA PaCa-2)	inhibition at 10 µM (MIA PaCa-2 (Table 5A))	pIC50 (MIA PaCa-2 (Table 5A))
COc1cccc(Cn2ccnc2-c2nc(O)c3scc(-c4ccc(OCC(C)C)nc4)c3n2)c1 [drawing 635]		76 to 100%	> 6.30
CO[C@H]1CC[C@@H](Nc2nc(-c3nccn3C)nc(C(=O)N3CCc4c(O)cccc4C3)c2C)C1 [drawing 636]		1 to 25%	< 6.00
CO[C@H]1C[C@@H](Nc2nc(-c3ccccn3)nc3sccc23)C1 [drawing 637]		1 to 25%	< 6.00
CO[C@H]1C[C@@H](Nc2nc(-c3nccn3C)nc3sccc23)C1 [drawing 638]		26 to 50%	< 6.00
Cn1ccc(-c2sc3nc(-c4nccn4C)nc(O)c3c2-c2ccccc2)n1 [drawing 639]		76 to 100%	< 6.00
CO[C@H]1C[C@@H](Nc2nc(-c3nccn3C)nc3sc(-c4ccn(C)n4)c(-c4ccccc4)c23)C1 [drawing 640]		76 to 100%	< 6.00
CO[C@H]1C[C@H](Nc2nc(-c3nccn3C)nc3sc(-c4ccn(C)n4)c(-c4ccccc4)c23)C1 [drawing 641]		76 to 100%	< 6.00
CN(C)CCOCCNc1nc(-c2nccn2C)nc2sc(-c3ccn(C)n3)c(-c3ccccc3)c12 [drawing 642]		76 to 100%	< 6.00
Cn1ccc(-c2sc3nc(-c4nccn4C)nc(N[C@H]4C[C@@H](O)C4)c3c2-c2ccccc2)n1 [drawing 643]		0%	< 6.00
CO[C@H]1C[C@@H](Nc2nc(-c3ncc[nH]3)nc3sc(-c4ccn(C)n4)c(-c4ccccc4)c23)C1 [drawing 645]		76 to 100%	6.00 to 6.12
CO[C@H]1CC[C@@H](Nc2nc(-c3ncc[nH]3)nc3sc(-c4ccn(C)n4)c(-c4ccccc4)c23)C1 [drawing 646]		76 to 100%	6.00 to 6.12
CO[C@H]1CC[C@@H](Nc2nc(-c3nccn3C)nc3sc(-c4ccn(C(C)C)n4)c(-c4ccccc4)c23)C1 [drawing 647]		76 to 100%	6.13 to 6.30
COc1nc(-c2ccccn2)nc2c(-c3ccccn3)csc12 [drawing 648]		51 to 75%	< 6.00
CO[C@H]1C[C@@H](Nc2nc(-c3nccn3C)nc3sc(-c4ccn(C)n4)c(C)c23)C1 [drawing 649]		76 to 100%	< 6.00
CO[C@H]1CC[C@@H](Nc2nc(-c3nccn3C)nc3sc(-c4ccn(C)n4)c(C)c23)C1 [drawing 650]		76 to 100%	6.00 to 6.12
Cc1c(-c2ccn(C)n2)sc2nc(-c3nccn3C)nc(NCCCS(C)(=O)=O)c12 [drawing 651]		0%	< 6.00
Cc1c(-c2ccn(C)n2)sc2nc(-c3nccn3C)nc(NCCCC(=O)N(C)C)c12 [drawing 652]		0%	< 6.00
Cc1c(-c2ccn(C)n2)sc2nc(-c3nccn3C)nc(NCCOC(=O)N(C)C)c12 [drawing 653]		26 to 50%	< 6.00
CO[C@H]1CC[C@@H](Nc2nc(-c3nccn3C)nc3sc(-c4ccn(C(C)C)n4)c(C)c23)C1 [drawing 654]		76 to 100%	6.13 to 6.30
CO[C@H]1C[C@@H](Nc2nc(-c3nccn3C)nc3sc(C(=O)NC(C)C)c(-c4ccccc4)c23)C1 [drawing 655]		51 to 75%	< 6.00
